This note sets out measurements from US20230230249A1, “DIGITAL ANTIMICROBIAL SUSCEPTIBILITY TESTING” (ARIZONA BOARD OF REGENTS ON BEHALF OF ARIZONA STATE …, priority 2020, published 2023).

This test deals with E. coli ATCC 25922. Kind of test: Digital AST by LVSi single-cell division tracking, pure E. coli samples. The conditions noted are these: for bacterial cell growth (normalized cumulative division events) versus control: different batches of E. coli; for average counting number of cell spots during 5-min video: 37° C., stationary phase cells. In kind it is cell-based. As for the experimental part:
E. coli ATCC 25922 were purchased from American Type Culture Collection (ATCC) and stored at −80° C. in 5% glycerol. Antibiotics, including ciprofloxacin and ampicillin were purchased from Sigma-Aldrich. The antibiotic powders were stored in the dark at 2 to 8° C. Frozen E. coli strains were thawed, and 50 μL of the cells were cultured in 5 mL of Luria-Bertani (LB) medium (per liter: 10 g peptone 140, 5 g yeast extract, and 5 g sodium chloride) at 37° C. and 150 rpm for 15 h. Then the overnight cultured E. coli was inoculated into LB broth directly. After dilution to appropriate cell concentrations, antibiotics were added to the E. coli suspensions.
The dual channel LVSi system depicted in FIG. 1A was used, with two 800 mW, 780 nm infrared (IR) LEDs (M780LP1, Thorlabs, Inc., USA), each with collimating and focusing lenses and a central blocking aperture to focus a ring-shaped illumination through the sample or the reference cuvettes. Wide-view and deep field depth scattering images were recorded by two CMOS cameras (BFS-U3-16S2M-CS, Point Grey Research Inc., Canada) at 10 fps through two 2×variable zoom lens (NAVITAR 12×, Navitar, USA), for the sample and reference cuvettes, respectively. The image volume was determined by the viewing size and focal depth of the optics. For these experiments, the viewing area of 2.5 mm×1.9 mm×1.0 mm was equivalent to 4.8 μL at 2.0× magnifying power. The imaging system was enclosed in a thermally isolated housing with a controlled temperature (37° C.).
Individual cells recorded by LVSi are resolved as bright spots. Before division tracking, each spot was detected with a Laplacian of Gaussian (LoG) filter with defined radius and threshold. Then, the spots from adjacent time frames were connected with a Karman filter for directional linking. So each bright spot became a single-cell trajectory. To track the division events, the newly appeared cell trajectories (those from the image edges excluded) were first filtered out as the child trajectory candidates, and for each child trajectory candidate, the nearby old trajectories (appeared before the child trajectory candidate) were checked. If there was a close-by old trajectory split at the start time of the child trajectory candidate, a potential division event was tracked. To filter out the merge/crossing induced splitting, the spots merging events were also checked and were filtered out from the potential division events. Finally, an intensity filter was used to evaluate the remaining division events, ensuring the parent cell intensity is about the summation of the two divided child ones, and the two child ones are similar in size.
To validate that the tracked division events were due to real cell growth, rather than an artifact of the particle merging or crossing, a division over-counting calibration test was designed. To rule out the real division events, the E. coli cells were heated at ˜65° C. for 15 min. Then, each 5-min video of the heated E. coli cells with different concentrations (2.0×10^4˜2.0×10^5 CFU/mL, corresponding to 100-1000 spots in image view) were analyzed for single-cell division tracking. Each concentration test was repeated three times. Then, the division over-counting calibration curve was extracted from the tracking results. The division over-counting is less an issue when the cell number is below 500, corresponding to the bacterial concentration of about 1.0×10^5 CFU/mL. When the cell number is above 500, some miss-counting of division events occurred. To rule out the cell density induced division over-counting, the final division events in all clinical samples were calibrated by subtracting the cell density associated over counted division events.
The statistical error of the division tracking was estimated by the mentioned division over-counting calibration. […]

In the case of `CC1(C)S[C@@H]2[C@H](NC(=O)[C@H](N)c3ccccc3)C(=O)N2[C@H]1C(=O)O` [ampicillin], the “bacterial cell growth (normalized cumulative division events) versus control” value (16 μg/mL ampicillin, 60 min (FIG. 5C, 5D)) is on record as “clear inhibition in bacterial cell growth”.

In the case of `O=C(O)c1cn(C2CC2)c2cc(N3CCNCC3)c(F)cc2c1=O` [ciprofloxacin], the “cumulative division events growth curve compared with control” value (2 μg/mL ciprofloxacin, 60 min (FIG. 4F)) is reported as “no obvious increases in the growth curve”. In addition, under “2 μg/mL ciprofloxacin, 60 min (FIG. 5A, 5B)”, the “bacterial cell growth (normalized cumulative division events) versus control” value is “clear inhibition in bacterial cell growth”. Besides, the “average counting number of cell spots during 5-min video” value (from here on “average counting number”) (2 μg/mL ciprofloxacin, snapshot at 5 min) is 118±8; the “average counting number” value (2 μg/mL ciprofloxacin, snapshot at 30 min) is listed as 114±5; the “average counting number” value (2 μg/mL ciprofloxacin, snapshot at 60 min) amounted to 106±4.
